# Assay results published in patent US7879846B2, “Serine hydrolase inhibitors” (Kyorin Pharmaceutical Co.., Ltd., priority 2006, dated 2011).
# Molecular target: T1, Human sputum neutrophil elastase (Homo sapiens, UniProt P08246)
# T1 construct: purchased Elastin Products Co; host or cells: human sputum (natural source)
# T1 sequence (P08246 30-247 limits assumed): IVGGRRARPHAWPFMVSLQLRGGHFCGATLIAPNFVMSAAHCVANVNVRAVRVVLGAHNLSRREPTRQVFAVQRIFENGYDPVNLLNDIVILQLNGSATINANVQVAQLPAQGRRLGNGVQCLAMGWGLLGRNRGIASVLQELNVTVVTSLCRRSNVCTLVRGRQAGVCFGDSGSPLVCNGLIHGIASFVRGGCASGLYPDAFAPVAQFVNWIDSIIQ
# Test: Inhibitor IC50 against human neutrophil elastase (fluorogenic MeOSuc-AAPV-AMC substrate)
# Format: biochemical
# Conditions: 20 min preincubation, read-out: HNE IC50
# Procedure: Determination of Inhibitor IC50 Values Against Human Neutrophil Elastase
# Human sputum neutrophil elastase (Elastin Products Co.) was diluted into Assay Buffer A (200 mM Tris pH 7.4, 1 mg/ml BSA) to a working concentration of 0.55 U/ml. […] DMSO alone was used as the negative control. MeOSuc-AAPV-AMC (Bachem) substrate was dissolved in DMSO to 20 mM and further diluted to 1 mM in Assay Buffer A immediately before use. Substrate was added to the elastase assay at a final concentration of 1×10^−4 M. The reaction was allowed to proceed for 20 minutes at room temperature and then quenched with acetic acid at a final concentration of 3% (v/v). […] Fluorescence intensity versus inhibitor concentration was plotted and fit to the Hill equation to quantify IC50 values.
row,SMILES,IC50
1,CCc1cccc2nc(-c3cccnc3N(C)C3CCN(C)C3)oc(=O)c12 (stereo not shown) [Compound 153],0.016 to 0.06 µM
2,Cc1cccc2nc(-c3cccnc3F)oc(=O)c12 [Compound 34],0.061 to 0.15 µM
3,Cc1cccc2nc(-c3cccnc3OCCOCCOCCOCCOc3ncccc3C(=O)O)oc(=O)c12 [Compound 58],0.061 to 0.15 µM
4,Cc1cccc2nc(-c3ccncc3)oc(=O)c12 [Compound 9],> 0.15 µM
5,COc1cc(C(C)C)c2c(=O)oc(-c3cccnc3-n3ccnc3)nc2c1 [Compound 109],0.016 to 0.06 µM
6,CCc1cccc2nc(-c3cccnc3N3CCN(CCN4CCOCC4)CC3)oc(=O)c12 [Compound 152],< 0.015 µM
7,CSc1ncccc1-c1nc2cccc(Cl)c2c(=O)o1 [Compound 27],0.061 to 0.15 µM
8,CCc1cccc2nc(-c3cccnc3N3CC[N+](C)(CC(N)=O)CC3)oc(=O)c12 [Compound 101],< 0.015 µM
9,Cc1cccc2nc(-c3cccnc3N3CCC[C@H]3C(=O)OC(C)(C)C)oc(=O)c12 [Compound 32],0.016 to 0.06 µM
10,CCc1cccc2nc(-c3cccnc3-n3cc[n+](C)c3)oc(=O)c12 [Compound 84],0.016 to 0.06 µM
11,Cc1cccc2nc(-c3cnccn3)oc(=O)c12 [Compound 5],0.061 to 0.15 µM
12,Cc1ccc(Sc2ncccc2-c2nc3cccc(Cl)c3c(=O)o2)cc1 [Compound 28],0.061 to 0.15 µM
13,CCc1cccc2nc(-c3cccnc3-n3ccnc3)oc(=O)c12 [Compound 67],< 0.015 µM
14,COc1cccc2nc(-c3ncccc3-n3ccnc3)oc(=O)c12 [Compound 69],> 0.15 µM
15,O=c1oc(-c2ncccc2-n2ccnc2)nc2cccc(Cl)c12 [Compound 70],> 0.15 µM
16,COc1cccc2nc(-c3cccnc3N3CCC[C@H]3C(=O)OC(C)(C)C)oc(=O)c12 [Compound 42],> 0.15 µM
17,Cc1cccc2nc(-c3cccnc3Cl)oc(=O)c12 [Compound 20],0.016 to 0.06 µM
18,COc1cc(C(C)C)c2c(=O)oc(-c3cnn(C)c3N3CCN(C)CC3)nc2c1 [Compound 123],> 0.15 µM
19,Cc1cccc2nc(-c3cccnc3OCCOCCOCCOCc3ccccc3)oc(=O)c12 [Compound 56],> 0.15 µM
20,CCc1cccc2nc(-c3cccnc3N3CCN(Cc4ccc(F)cc4)CC3)oc(=O)c12 [Compound 99],< 0.015 µM
21,Cc1cccc2nc(-c3ncccc3-n3ccnc3)oc(=O)c12 [Compound 68],> 0.15 µM
22,Cc1cccc2nc(-c3cccnc3SCCS(=O)(=O)c3ccccc3)oc(=O)c12 [Compound 29],0.016 to 0.06 µM
23,O=c1oc(-c2cccnc2-n2ccnc2)nc2cccc(Cl)c12 [Compound 71],> 0.15 µM
24,CCc1cccc2nc(-c3ncccc3-n3ccnc3)oc(=O)c12 [Compound 97],< 0.015 µM

# Now from value to compound:
row,IC50,SMILES
1,0.016 to 0.06 µM,CCCN1CCN(c2ncccc2-c2nc3cc(OC)cc(CC)c3c(=O)o2)CC1 [Compound 222]
2,0.016 to 0.06 µM,CCc1cc(OC)cc2nc(-c3cccnc3N3CCC(S(=O)(=O)O)CC3)oc(=O)c12 [Compound 209]
3,0.061 to 0.15 µM,COc1cc(C2CC2)c2c(=O)oc(-c3cccnc3N3CC[C@@H](N(C)C)C3)nc2c1 [Compound 164]
4,< 0.015 µM,CCc1cc(OC)cc2nc(-c3cccnc3N3CCC[C@H]3CN3CCCC3)oc(=O)c12 [Compound 271]
5,< 0.015 µM,CCc1cc(OC)cc2nc(-c3cccnc3N3CC[C@@H](N4CCS(=O)(=O)CC4)C3)oc(=O)c12 [Compound 269]
6,< 0.015 µM,CCc1cc(OC)cc2nc(-c3cccnc3N3CC[C@@H](N4CCOCC4)C3)oc(=O)c12 [Compound 267]
7,0.016 to 0.06 µM,CCCc1cc(OC)cc2nc(-c3cccnc3N3CC[C@H](N(C)C)C3)oc(=O)c12 [Compound 148]
8,0.016 to 0.06 µM,CCc1cc(OC)cc2nc(-c3cccnc3N3CCN(CCOCCO)CC3)oc(=O)c12 [Compound 210]
9,0.061 to 0.15 µM,COc1cc(C(C)C)c2c(=O)oc(-c3cccnc3N(C)C3CCN(C)C3)nc2c1 (stereo not shown) [Compound 117]
10,< 0.015 µM,CCc1cccc2nc(-c3cccnc3N3CCN4CCCC4C3)oc(=O)c12 (stereo not shown) [Compound 104]
11,< 0.015 µM,CCc1cc(OC)cc2nc(-c3cccnc3N3CC[C@@H](N4CCNC(=O)C4)C3)oc(=O)c12 [Compound 266]
12,< 0.015 µM,CCc1cccc2nc(-c3cccnc3N3CC[N+](C)(CC4CC4)CC3)oc(=O)c12 [Compound 103]
13,0.061 to 0.15 µM,COc1cc(C(C)C)c2c(=O)oc(-c3cccnc3N3CCN(CCN4CCOCC4)CC3)nc2c1 [Compound 114]
14,< 0.015 µM,C#CCN1CCN(c2ncccc2-c2nc3cccc(CC)c3c(=O)o2)CC1 [Compound 234]
15,0.061 to 0.15 µM,CCCc1cc(OC)cc2nc(-c3cccnc3N3CCC(C(=O)C[S+](C)[O-])CC3)oc(=O)c12 (stereo not shown) [Compound 163]
16,< 0.015 µM,CCc1cc(OC)cc2nc(-c3cccnc3-n3ccnc3)oc(=O)c12 [Compound 106]
17,0.061 to 0.15 µM,COc1cc(C(C)C)c2c(=O)oc(-c3cccnc3N3CCN(CCN(C)C)CC3)nc2c1 [Compound 115]
18,> 0.15 µM,CCc1cc(N(C)C)cc2nc(-c3cccnc3N(C)C3CCN(C)C3)oc(=O)c12 (stereo not shown) [Compound 144]
19,< 0.015 µM,CCOCCN1CCN(c2ncccc2-c2nc3cc(OC)cc(CC)c3c(=O)o2)CC1 [Compound 203]

row,IC50,SMILES
1,0.061 to 0.15 µM,CCCc1cc(OC)cc2nc(-c3cccnc3N3CC[C@@H](N(C)C)C3)oc(=O)c12 [Compound 149]
2,< 0.015 µM,CCc1cc(OC)cc2nc(-c3cccnc3N3CC[C@@H](N(C)CCOC)C3)oc(=O)c12 [Compound 265]
3,< 0.015 µM,CCc1cc(OC)cc2nc(-c3cccnc3N(CC)CCCN3CCOCC3)oc(=O)c12 [Compound 238]
4,0.016 to 0.06 µM,COc1cc(C2CCC2)c2c(=O)oc(-c3cccnc3N(C)CCN(C)C)nc2c1 [Compound 188]
5,0.016 to 0.06 µM,CCc1cc(OC)cc2nc(-c3cccnc3N3CCCCC3)oc(=O)c12 [Compound 226]
6,< 0.015 µM,C=CCN1C[C@@H](C)N(c2ncccc2-c2nc3cc(OC)cc(CC)c3c(=O)o2)C[C@H]1C [Compound 217]
7,< 0.015 µM,CCc1cc(OC)cc2nc(-c3cccnc3N3CCN(CC4OCCO4)CC3)oc(=O)c12 [Compound 191]
8,0.016 to 0.06 µM,CCc1cc(OC)cc2nc(-c3cccnc3N3CCN(C(C)C)CC3)oc(=O)c12 [Compound 201]
9,< 0.015 µM,CCc1cc(OC)cc2nc(-c3cccnc3N(C)CC3CCN(C)C3)oc(=O)c12 (stereo not shown) [Compound 244]
10,0.061 to 0.15 µM,COc1cc(C2CCC2)c2c(=O)oc(-c3cccnc3N3CCN(CCN(C)C)CC3)nc2c1 [Compound 186]
11,0.061 to 0.15 µM,CCc1cc(OC)cc2nc(-c3cccnc3N3CCC(Cc4ccccc4)CC3)oc(=O)c12 [Compound 224]
12,0.061 to 0.15 µM,COc1cc(C(C)C)c2c(=O)oc(-c3cccnc3N3CCN(CC4CC4)CC3)nc2c1 [Compound 112]
13,< 0.015 µM,CCc1cc(OC)cc2nc(-c3cccnc3N3CCC(N4CCCC4)CC3)oc(=O)c12 [Compound 215]
14,< 0.015 µM,CCc1cc(OC)cc2nc(-c3cccnc3N3CC[C@H](N4CCS(=O)(=O)CC4)C3)oc(=O)c12 [Compound 264]
15,< 0.015 µM,CCc1cc(OC)cc2nc(-c3cccnc3N(C)CCCN(C)C)oc(=O)c12 [Compound 241]
16,> 0.15 µM,COc1cc(C2CCC2)c2c(=O)oc(-c3cccnc3N3CCN(CCN4CCOCC4)CC3)nc2c1 [Compound 187]
17,0.061 to 0.15 µM,COc1cc(C(C)C)c2c(=O)oc(-c3cccnc3N3CC[N+](C)(CC(N)=O)CC3)nc2c1 [Compound 129]
18,0.016 to 0.06 µM,CCCc1cc(OC)cc2nc(-c3cccnc3N3CCN(CCN(C)C)CC3)oc(=O)c12 [Compound 158]
